How the values were obtained:
[1] = molecular target: T1, lysosomal ABCA1 (Homo sapiens, UniProt O95477); test: immunoblotting of lysosome immunoprecipitates (LysoIP) in senescent cells; assay type: cell-based; settings: senescent cells (SEN); probucol 10 μM, glyburide 75 μM
T1 construct: endogenous ABCA1 was abundantly present in lysosomes; endogenous in cells; host or cells: senescent human diploid fibroblasts (IMR90, BJ; hTERT-expressing, DNA damage-induced senescence)
Protocol: (§1) DNA damage-induced senescence was induced in human diploid fibroblasts (IMR90, BJ) by treatment with ionizing radiation (12 Gy) or bleomycin (10 μg/ml, for 24 hours). Specifically, IMR90 and BJ cells expressing hTERT (DNA damage-induced senescence; SEN), IMR90 cells co-expressing hTERT and H-RasV12 [oncogene-induced senescence; SEN (OIS)], and replication-exhausted [replicative senescent cells; SEN (REP)] IMR90 cells were prepared. Normal proliferating cells (PRO) were used as the control. It was analyzed how ABCA1, which mediates cholesterol transport at the plasma membrane, is involved in cholesterol accumulation. […] The prepared senescent cell models were treated with probucol (10 μM) and/or glyburide (75 μM), and immunoblotting analysis was performed on lysosome immunoprecipitates (LysoIP).

[2] = system: male mice subjected to DMM surgery (post-traumatic osteoarthritis); test: post-traumatic osteoarthritis progression after DMM surgery, intra-articular injection; assay type: in vivo, mouse; settings: for osteoarthritis progression / cartilage destruction in knee joints (Safranin O staining) / expression levels of SASP factors (IL6, MMP13) and senescence markers (p16, nuclear HMGB1) / osteoarthritis-related pain symptoms / pain indicators: intra-articular; for osteoarthritis progression / cartilage destruction in knee joints (Safranin O staining): probucol 200 μM 10 μl weekly for 6 weeks, hydrogel with 3 mM glyburide 10 μl every 10 days for 10 weeks; for expression levels of SASP factors (IL6, MMP13) and senescence markers (p16, nuclear HMGB1) / osteoarthritis-related pain symptoms / pain indicators: probucol 200 μM weekly for 6 weeks, 3 mM glyburide hydrogel every 10 days for 10 weeks
Protocol: In the case of mice, male (C57BL/6J) mice were used since estrogen in female mice may influence osteoarthritis progression and serve as a confounding factor. Post-traumatic osteoarthritis was induced in 12-week-old male mice by destabilization of the medial meniscus (DMM) surgery. To investigate the role of lysosomal cholesterol partitioning regulated by ABCA1 in age-related inflammation in vivo, ABCA1 modulators were administered to male mice subjected to DMM surgery, and their effects on the progression of post-traumatic osteoarthritis were observed. Male mice subjected to either DMM surgery or sham surgery were intra-articularly injected with 10 μl of probucol (200 μM) dissolved in DMSO once a week for 6 weeks, or with 10 μl of PBS-suspended hydrogel containing 3 mM glyburide (PBS:hydrogel=1:1) every 10 days for 10 weeks. After the treatment period, the mice were sacrificed.

[3] = system: mouse primary cultured chondrocytes (SEN); test: SASP regulation in senescent mouse primary cultured chondrocytes (SEN); assay type: cell-based; settings: probucol 10 μM, glyburide 75 μM, lovastatin 2 μM
Protocol: Mouse primary cultured chondrocytes were isolated from the femoral condyle and tibial plateau of 5-day-old ICR mice.
The ABCA1-deficient mouse primary chondrocyte model was prepared using siRNAs of SEQ ID NOs: 5 to 8. • ABCA1 siRNA #1: SEQ ID NO. 5 • ABCA1 siRNA #2: SEQ ID NO. 6 • ABCA1 siRNA #3: SEQ ID NO. 7 • ABCA1 siRNA #4: SEQ ID NO. 8
Senescence of chondrocytes promotes age-related musculoskeletal disorders. The correlation between cholesterol metabolism and ABCA1 was analyzed in a DNA damage-induced aging model (SEN) of mouse primary cultured chondrocytes isolated from the femoral condyles and tibial plateaus of 5-day-old ICR mice.
When ABCA1 was depleted in mouse primary cultured chondrocytes (SEN), the expression of SASP genes, including Mmp3, Mmp13 and Cxcl1, was suppressed, while the expression of Cdkn2a remained unchanged (FIG. 11B). […] Induction of cholesterol depletion inhibited the sustained activation pattern of mTORC1 (FIG. 11D), which was consistent with the results from the senescent cell model (in vitro) in Example 1. Therefore, it was confirmed that the lysosomal ABCA1 gene is a major factor in SASP regulation in vivo.

[4] = system: DNA damage-induced senescent cells (SEN) and oncogene-induced senescent cells (SEN (OIS)) of human diploid fibroblasts (IMR90, BJ); test: SASP factor and senescence marker gene expression (qRT-PCR) in senescent cell models; assay type: cell-based; settings: for expression of SASP genes (IL1A, IL1B): senescent cells (SEN), cholesterol depletion, cholesterol stimulation or lovastatin treatment; for expression of CDKN2A or CDKN1A: senescent cells
Protocol: DNA damage-induced senescence was induced in human diploid fibroblasts (IMR90, BJ) by treatment with ionizing radiation (12 Gy) or bleomycin (10 μg/ml, for 24 hours). Specifically, IMR90 and BJ cells expressing hTERT (DNA damage-induced senescence; SEN), IMR90 cells co-expressing hTERT and H-RasV12 [oncogene-induced senescence; SEN (OIS)], and replication-exhausted [replicative senescent cells; SEN (REP)] IMR90 cells were prepared. Normal proliferating cells (PRO) were used as the control.
To investigate the functional consequences of age-related changes in cholesterol levels, cellular cholesterol was depleted using methyl-β-cyclodextrin (MβCD), and multiple senescence markers were examined during DNA damage-induced aging, including senescence-associated β-galactosidase (SA-β-Gal) activity, cell cycle arrest, and expression of senescence-associated secretory phenotype (SASP) factors.
To specifically confirm the effect of increased expression of lysosomal ABCA1 on SASP activity, experiments were conducted using probucol, an ABCA1 modulator that has been reported to limit its localization to intracellular compartments including lysosomes, and glyburide, a broad-spectrum inhibitor of the ABC transport protein family that promotes channel closure of ABC transporters. The prepared senescent cell models were treated with probucol (10 μM) and/or glyburide (75 μM), and immunoblotting analysis was performed on lysosome immunoprecipitates (LysoIP).

[5] = system: senescence-induced cells (IMR90, BJ); test: cholesterol measurement (Filipin staining, enzymatic measurement) in senescent cells; assay type: cell-based, human
Protocol: as §1, with “control.” for “control. It was analyzed how ABCA1, which mediates cholesterol transport at the plasma membrane, is involved in cholesterol accumulation.”

[6] = system: mTORC1; test: mTORC1 activity in senescent cells; assay type: cell-based, human
Protocol: as §1, with “control.” for “control. It was analyzed how ABCA1, which mediates cholesterol transport at the plasma membrane, is involved in cholesterol accumulation.”

[7] = SEN and SEN (OIS), glyburide 75 μM
[8] = intra-articular probucol 200 μM weekly for 6 weeks
[9] = DNA damage-induced senescent cells (SEN) lacking ABCA1, probucol 10 μM

T1 sequence (O95477 whole entry): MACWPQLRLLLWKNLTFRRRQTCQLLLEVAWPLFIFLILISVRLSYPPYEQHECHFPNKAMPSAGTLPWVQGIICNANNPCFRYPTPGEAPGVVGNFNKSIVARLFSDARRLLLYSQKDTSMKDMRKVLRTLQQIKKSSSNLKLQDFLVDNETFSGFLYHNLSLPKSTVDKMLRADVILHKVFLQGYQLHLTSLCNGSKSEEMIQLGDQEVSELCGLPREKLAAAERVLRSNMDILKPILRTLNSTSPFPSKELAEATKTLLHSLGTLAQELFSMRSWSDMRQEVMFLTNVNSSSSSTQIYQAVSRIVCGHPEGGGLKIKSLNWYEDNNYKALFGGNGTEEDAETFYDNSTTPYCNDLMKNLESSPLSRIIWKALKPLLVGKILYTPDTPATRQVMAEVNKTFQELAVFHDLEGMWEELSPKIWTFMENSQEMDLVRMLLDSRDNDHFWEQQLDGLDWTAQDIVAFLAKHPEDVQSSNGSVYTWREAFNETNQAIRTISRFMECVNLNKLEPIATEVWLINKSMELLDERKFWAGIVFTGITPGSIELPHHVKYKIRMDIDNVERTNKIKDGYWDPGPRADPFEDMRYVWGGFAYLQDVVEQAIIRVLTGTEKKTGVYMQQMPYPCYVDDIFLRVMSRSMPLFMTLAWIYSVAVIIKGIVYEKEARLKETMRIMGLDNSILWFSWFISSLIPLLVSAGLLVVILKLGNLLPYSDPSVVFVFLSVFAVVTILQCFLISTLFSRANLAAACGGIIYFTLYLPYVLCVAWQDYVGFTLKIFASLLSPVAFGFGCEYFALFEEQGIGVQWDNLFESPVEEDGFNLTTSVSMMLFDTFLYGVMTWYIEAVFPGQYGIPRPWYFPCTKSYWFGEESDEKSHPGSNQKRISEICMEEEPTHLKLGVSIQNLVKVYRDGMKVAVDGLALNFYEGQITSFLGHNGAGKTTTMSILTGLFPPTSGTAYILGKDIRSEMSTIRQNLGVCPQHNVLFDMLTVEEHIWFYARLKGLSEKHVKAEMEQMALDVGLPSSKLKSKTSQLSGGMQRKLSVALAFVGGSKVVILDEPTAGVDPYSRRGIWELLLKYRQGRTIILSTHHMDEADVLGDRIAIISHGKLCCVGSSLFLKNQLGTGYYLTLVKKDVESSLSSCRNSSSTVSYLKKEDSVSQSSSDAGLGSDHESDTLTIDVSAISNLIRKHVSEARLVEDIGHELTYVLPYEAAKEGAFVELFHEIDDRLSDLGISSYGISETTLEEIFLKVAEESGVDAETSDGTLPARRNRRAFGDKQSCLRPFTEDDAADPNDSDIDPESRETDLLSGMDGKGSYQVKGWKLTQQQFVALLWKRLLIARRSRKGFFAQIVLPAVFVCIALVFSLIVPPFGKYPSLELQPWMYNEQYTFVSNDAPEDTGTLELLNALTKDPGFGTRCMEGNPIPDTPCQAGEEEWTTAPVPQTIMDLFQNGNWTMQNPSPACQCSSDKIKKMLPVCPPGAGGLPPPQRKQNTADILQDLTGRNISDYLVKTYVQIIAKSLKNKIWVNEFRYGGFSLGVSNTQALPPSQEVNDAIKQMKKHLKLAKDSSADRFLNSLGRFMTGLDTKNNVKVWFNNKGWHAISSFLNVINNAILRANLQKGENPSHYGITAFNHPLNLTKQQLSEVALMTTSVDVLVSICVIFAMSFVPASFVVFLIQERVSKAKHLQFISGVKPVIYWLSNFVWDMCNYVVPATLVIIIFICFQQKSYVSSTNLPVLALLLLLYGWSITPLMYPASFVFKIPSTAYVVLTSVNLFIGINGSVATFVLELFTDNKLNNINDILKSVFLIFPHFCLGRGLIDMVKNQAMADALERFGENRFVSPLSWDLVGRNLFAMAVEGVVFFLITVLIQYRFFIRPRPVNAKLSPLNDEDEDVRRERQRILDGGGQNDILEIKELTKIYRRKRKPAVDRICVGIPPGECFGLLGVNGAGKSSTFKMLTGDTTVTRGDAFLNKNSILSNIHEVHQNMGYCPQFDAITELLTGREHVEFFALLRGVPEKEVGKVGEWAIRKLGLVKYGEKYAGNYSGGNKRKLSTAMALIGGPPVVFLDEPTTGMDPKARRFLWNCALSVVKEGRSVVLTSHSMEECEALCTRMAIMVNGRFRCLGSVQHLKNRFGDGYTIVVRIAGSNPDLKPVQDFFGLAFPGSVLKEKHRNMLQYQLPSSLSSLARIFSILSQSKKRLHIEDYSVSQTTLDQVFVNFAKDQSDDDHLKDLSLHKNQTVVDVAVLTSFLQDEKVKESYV

Compound: COc1ccc(Cl)cc1C(=O)NCCc1ccc(S(=O)(=O)NC(=O)NC2CCCCC2)cc1 [glyburide]
- expression of lysosomal ABCA1 (LysoIP immunoblot) [1]: decrease
- osteoarthritis progression / cartilage destruction in knee joints (Safranin O staining) [2]: alleviated
- expression levels of SASP factors (IL6, MMP13) and senescence markers (p16, nuclear HMGB1) [2]: decreased
- osteoarthritis-related pain symptoms / pain indicators [2]: amelioration
- SASP factors (Mmp3, Mmp13, Cxcl1) [3]: suppressed
- SASP activity [4, 7]: inhibited
- SASP activation / SASP factor expression induced by probucol ([4]; senescence-induced cells treated with probucol plus test substance): completely suppressed
- lysosomal cholesterol accumulation [5, 7]: inhibited

Compound: methyl-β-cyclodextrin [MBCD]
- expression of SASP genes (IL1A, IL1B) [4]: reduced
- cholesterol levels ([5]; senescence-induced cells, cholesterol-depleted (MBCD+) conditions): decreased

Compound: CC(C)CCC[C@@H](C)[C@H]1CC[C@H]2[C@@H]3CC=C4C[C@@H](O)CC[C@]4(C)[C@H]3CC[C@]12C [cholesterol]
- expression of CDKN2A or CDKN1A [4]: little effect
- expression of SASP genes (IL1A, IL1B) [4]: significantly increased

Compound: CC(C)(Sc1cc(C(C)(C)C)c(O)c(C(C)(C)C)c1)Sc1cc(C(C)(C)C)c(O)c(C(C)(C)C)c1 [probucol]
- expression of lysosomal ABCA1 (LysoIP immunoblot) [1]: further enhanced
- Osteoarthritis Research Society International (OARSI) grades [2, 8]: higher
- dynamic and static weight-bearing capacity [2, 8]: impaired
- hindlimb withdrawal threshold [2, 8]: reduced
- osteoarthritis progression / cartilage destruction in knee joints (Safranin O staining) [2]: worsened
- expression levels of SASP factors (IL6, MMP13) and senescence markers (p16, nuclear HMGB1) [2]: increased
- osteoarthritis-related pain symptoms / pain indicators [2]: worsened
- SASP factors (Mmp3, Mmp13, Cxcl1) [3]: upregulated
- mTORC1 activation [6, 9]: not activated
- mTORC1 activity ([6]; senescence-induced cells, probucol treatment): activation
- SASP (IL1A, IL1B) activation [4, 9]: not activated
- SASP activity ([4]; oncogene-induced senescent cells (SEN (OIS)), probucol 10 μM): increased
- SASP activity ([4]; senescence-induced cells (SEN), probucol treatment): increased
- expression of CDKN2A or CDKN1A [4]: minimal effect
- cholesterol accumulation (lysosomal) ([5]; DNA damage-induced senescent cells (SEN), probucol 10 μM): promoted

Compound: CC[C@H](C)C(=O)O[C@H]1C[C@@H](C)C=C2C=C[C@H](C)[C@H](CC[C@@H]3C[C@@H](O)CC(=O)O3)[C@H]21 [lovastatin]
- SASP factors (Mmp3, Mmp13, Cxcl1) [3]: suppressed
- expression of CDKN2A or CDKN1A [4]: without affecting
- expression of SASP genes (IL1A, IL1B) [4]: suppressed
- expression of the cholesterol transporter gene ABCA1 ([4]; senescent cells vs normal proliferating cells (PRO)): also suppressed

Reference: patent publication US20260240871A1, “PHARMACEUTICAL COMPOSITION FOR PREVENTION OR TREATMENT OF AGE-RELATED MUSCULOSKELETAL DISORDERS” (SEOUL NATIONAL UNIVERSITY R&DB FOUNDATION, priority 2023, published 2026)
